# Assay results reported in PubChem BioAssay AID2060893 (Molecular Pharmacology Branch, DTP, NCI, 2025).
# Tested on: K86415-001-R-J1-PDC complex spheroids, viability
# Experiment: Anticancer human tumor K86415-001-R-J1-PDC patient-derived lung adenocarcinoma cell line growth inhibition [RAS]
# Settings: for IC50: curve of first compound; for viability, T/C: stronger effect = lower value
# In short: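 Multi-cell-type spheroids: tumor cells plus HUVEC endothelial cells and mesenchymal stem cells. RAS-pathway inhibitors were combined with targeted agents, each dosed in half-log steps down from clinical Cmax, or from 10 microM when Cmax was unknown.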
# [1] = second compound 0.0316 µM, first compound 0.0316 µM
# [2] = second compound 0.0316 µM, first compound 0.1 µM
# [3] = second compound 0.0316 µM, first compound 0.316 µM
# [4] = second compound 0.0316 µM, first compound 1 µM
# [5] = second compound 0.0316 µM, first compound 3.16 µM
# [6] = second compound 0.0316 µM, first compound 10 µM
# [7] = second compound 0.1 µM, first compound 0.0316 µM
# [8] = second compound 0.1 µM, first compound 0.1 µM
# [9] = second compound 0.1 µM, first compound 0.316 µM
# [10] = second compound 0.1 µM, first compound 1 µM
# [11] = second compound 0.1 µM, first compound 3.16 µM
# [12] = second compound 0.1 µM, first compound 10 µM
# [13] = second compound 0.316 µM, first compound 0.0316 µM
# [14] = second compound 0.316 µM, first compound 0.1 µM
# [15] = second compound 0.316 µM, first compound 0.316 µM
# [16] = second compound 0.316 µM, first compound 1 µM
# [17] = second compound 0.316 µM, first compound 3.16 µM
# [18] = second compound 0.316 µM, first compound 10 µM
# [19] = second compound 1 µM, first compound 0.0316 µM
# [20] = second compound 1 µM, first compound 0.1 µM
# [21] = second compound 1 µM, first compound 0.316 µM
# [22] = second compound 1 µM, first compound 1 µM
# [23] = second compound 1 µM, first compound 3.16 µM
# [24] = second compound 1 µM, first compound 10 µM
# 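Further: spheroids exposed to agents for seven days before readout.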
compound,measurement,setting,value
Cc1nc(N2CCC3(CC2)COC(C)C3N)c(CO)nc1Sc1ccnc(N)c1Cl (centres undefined) + C#Cc1c(F)ccc2cc(O)cc(-c3ncc4c(N5CC6CCC(C5)N6)nc(OCC56CCCN5CC(F)C6)nc4c3F)c12,IC50,second compound 0.0316 µM,103 nM
same,IC50,second compound 0.1 µM,104 nM
same,IC50,second compound 0.316 µM,49.5 nM
same,IC50,second compound 1 µM,< 31.6 nM
same,IC50,second compound 3.16 µM,< 31.6 nM
same,IC50,second compound 10 µM,< 31.6 nM
same,"viability, T/C",[1],64.5%
same,"viability, T/C",[2],50.2%
same,"viability, T/C",[3],33.5%
same,"viability, T/C",[4],22.3%
same,"viability, T/C",[5],19%
same,"viability, T/C",[6],17.5%
same,"viability, T/C",[7],59.5%
same,"viability, T/C",[8],51.5%
same,"viability, T/C",[9],29.6%
same,"viability, T/C",[10],20%
same,"viability, T/C",[11],14.9%
same,"viability, T/C",[12],14%
same,"viability, T/C",[13],54.6%
same,"viability, T/C",[14],42.8%
same,"viability, T/C",[15],21.3%
same,"viability, T/C",[16],13.1%
same,"viability, T/C",[17],11.4%
same,"viability, T/C",[18],10.8%
same,"viability, T/C",[19],41.6%
same,"viability, T/C",[20],25.7%
same,"viability, T/C",[21],15.7%
same,"viability, T/C",[22],7.73%
same,"viability, T/C",[23],8.67%
same,"viability, T/C",[24],8.04%
same,"viability, T/C","second compound 3.16 µM, first compound 0.0316 µM",24.1%
same,"viability, T/C","second compound 3.16 µM, first compound 0.1 µM",13.5%
same,"viability, T/C","second compound 3.16 µM, first compound 0.316 µM",11%
same,"viability, T/C","second compound 3.16 µM, first compound 1 µM",7.3%
same,"viability, T/C","second compound 3.16 µM, first compound 3.16 µM",6.6%
same,"viability, T/C","second compound 3.16 µM, first compound 10 µM",5.45%
same,"viability, T/C","second compound 10 µM, first compound 0.0316 µM",10.5%
same,"viability, T/C","second compound 10 µM, first compound 0.1 µM",8.85%
same,"viability, T/C","second compound 10 µM, first compound 0.316 µM",6.18%
same,"viability, T/C","second compound 10 µM, first compound 1 µM",5.37%
same,"viability, T/C","second compound 10 µM, first compound 3.16 µM",3.83%
same,"viability, T/C","second compound 10 µM, first compound 10 µM",3.85%
NC1c2ccccc2OC12CCN(c1cnc3c(N4CCCc5ncccc54)n[nH]c3n1)CC2 (centres undefined) + C=CC(=O)N1CCN(c2nc(OCC3CCCN3C)nc3c(F)c(-c4nc(N)cc(C)c4C(F)(F)F)c(Cl)cc23)C(C)C1,IC50,second compound 0.00316 µM,< 31.6 nM
same,IC50,second compound 0.01 µM,< 31.6 nM
same,IC50,second compound 0.0316 µM,< 31.6 nM
same,IC50,second compound 0.1 µM,< 31.6 nM
same,IC50,second compound 0.316 µM,< 31.6 nM
same,IC50,second compound 1 µM,< 31.6 nM
same,"viability, T/C","second compound 0.00316 µM, first compound 0.0316 µM",7.58%
same,"viability, T/C","second compound 0.00316 µM, first compound 0.1 µM",6.46%
same,"viability, T/C","second compound 0.00316 µM, first compound 0.316 µM",4.66%
same,"viability, T/C","second compound 0.00316 µM, first compound 1 µM",5.77%
same,"viability, T/C","second compound 0.00316 µM, first compound 3.16 µM",4.88%
same,"viability, T/C","second compound 0.00316 µM, first compound 10 µM",5.36%
same,"viability, T/C","second compound 0.01 µM, first compound 0.0316 µM",7.19%
same,"viability, T/C","second compound 0.01 µM, first compound 0.1 µM",5.33%
same,"viability, T/C","second compound 0.01 µM, first compound 0.316 µM",4.69%
same,"viability, T/C","second compound 0.01 µM, first compound 1 µM",4.12%
same,"viability, T/C","second compound 0.01 µM, first compound 3.16 µM",4.26%
same,"viability, T/C","second compound 0.01 µM, first compound 10 µM",4.5%
same,"viability, T/C",[1],6.59%
same,"viability, T/C",[2],6.76%
same,"viability, T/C",[3],4.64%
same,"viability, T/C",[4],4.27%
same,"viability, T/C",[5],4.76%
same,"viability, T/C",[6],5.5%
same,"viability, T/C",[7],5.65%
same,"viability, T/C",[8],6.03%
same,"viability, T/C",[9],4.11%
same,"viability, T/C",[10],3.86%
same,"viability, T/C",[11],4.33%
same,"viability, T/C",[12],4.71%
same,"viability, T/C",[13],6.32%
same,"viability, T/C",[14],6.11%
same,"viability, T/C",[15],4.53%
same,"viability, T/C",[16],4.12%
same,"viability, T/C",[17],6.47%
same,"viability, T/C",[18],5.1%
same,"viability, T/C",[19],5.95%
same,"viability, T/C",[20],6.16%
same,"viability, T/C",[21],5%
same,"viability, T/C",[22],4.63%
same,"viability, T/C",[23],5.74%
same,"viability, T/C",[24],5.91%
